What was measured:
[1] = biological target: Jurkat cells expressing CXCR4 (Homo sapiens (Human), UniProt P61073); test: Chemokine (CXCL12-AF647) binding inhibition assay; settings: CXCL12-AF647 25 ng/mL, read-out: IC50 CXCL-12 binding Jurkat
Outline: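 Cells in HBSS, 20 mM HEPES, 0.2% BSA, pH 7.4, preincubated 15 min at room temperature with compound, then 25 ng/mL CXCL12-AF647 for 30 min. After washing and paraformaldehyde fixation, bound ligand read by flow cytometry; percent inhibition calculated from MFI relative to unlabeled and ligand-only controls.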

[2] = biological target: CXCR-4 transfected U87 cell line (U87.CXCR4) (Homo sapiens (Human), UniProt P61073); test: Intracellular CXCL-12-induced calcium mobilization assay (FLIPR); assay type: cell-based; settings: U87.CXCR4 cells, CXCL-12 25-50 ng/mL; read-out: IC50 CXCL-12 Ca2+ flux U87.CXCR4+
CXCR-4 transfected U87 cell line (U87.CXCR4), sequence (P61073 whole entry): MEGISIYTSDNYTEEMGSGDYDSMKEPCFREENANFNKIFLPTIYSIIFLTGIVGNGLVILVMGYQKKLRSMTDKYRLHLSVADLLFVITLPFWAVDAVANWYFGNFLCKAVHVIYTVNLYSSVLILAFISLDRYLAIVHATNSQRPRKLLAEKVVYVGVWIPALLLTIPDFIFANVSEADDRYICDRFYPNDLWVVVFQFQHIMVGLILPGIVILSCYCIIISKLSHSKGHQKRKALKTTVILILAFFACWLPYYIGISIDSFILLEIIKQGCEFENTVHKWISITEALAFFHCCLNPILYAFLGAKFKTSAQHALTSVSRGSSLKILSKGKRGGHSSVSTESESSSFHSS
Outline: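 U87.CXCR4 cells were seeded at 20,000 per well, cultured 12 hours, then loaded with 4 μM Fluo-2 AM for 45 min at 37° C. in HBSS with 20 mM HEPES and 0.2% BSA, pH 7.4. Calcium flux triggered by CXCL-12 (25-50 ng/mL) was tracked over time by FLIPR fluorescence at 37° C.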

in vitro = settings: human, Caco-2, pH 7.4
Outline: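 Compounds at 10 μM in HBSS pH 7.4 (0.1–0.3% DMSO) were dosed on Caco-2 monolayers, apical-to-basolateral and basolateral-to-apical, for 90 min at 37 °C, in duplicate. Monolayer integrity was checked by TEER and lucifer yellow flux, read by fluorescence at 485/535 nm. Compound was quantified by LC-MS/MS and Papp calculated.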

Jurkat cells expressing CXCR4, sequence (P61073 whole entry): as above

Row | Compound | IC50 [1] [nM] | IC50 [2] [nM] | Papp A→B at 90 min, 10 μM (in vitro) [×10⁻⁶ cm/s] | Papp B→A at 90 min, 10 μM (in vitro) [×10⁻⁶ cm/s] | efflux ratio at 90 min, 10 μM (in vitro)
1 | Cc1cccnc1[C@@H]1CCC[C@H](c2cn3c(N4CCN(C)CC4)ccc(N)c3n2)N1C [Compound I-76] | 0.01 to 100 | 0.01 to 100 | 0.1 to 10 | 10 to 30 | 10 to 30
2 | Cc1cccnc1[C@@H]1CCC[C@H](c2cn3c(N4CCN5CCCC5C4)cccc3n2)N1C (stereo partly drawn) [Compound I-77] | 0.01 to 100 | 0.01 to 100 | 10 to 30 | > 30 | 0.1 to 10
3 | Cc1cccnc1[C@@H]1CCC[C@H](c2cn3c(N4CCC(N(C)C)CC4)cccc3n2)N1C [Compound I-78] | 0.01 to 100 | 0.01 to 100 | 0.1 to 10 | 10 to 30 | > 30
4 | CN1CCN(c2cccc3nc([C@H]4CCC[C@@H](c5ncccc5C5CC5)N4C)cn23)CC1 [Compound I-79] | 0.01 to 100 | 0.01 to 100 | 0.1 to 10 | 10 to 30 | 0.1 to 10
5 | CN1CCN(c2cccc3nc([C@H]4CCC[C@@H](c5ncccc5C(F)(F)F)N4C)cn23)CC1 [Compound I-80] | 0.01 to 100 | 100 to 1000 | 0.1 to 10 | 0.1 to 10 | 0.1 to 10
6 | CN1CCN(c2cccc3nc([C@H]4CCC[C@@H](c5ncccc5OC(F)(F)F)N4C)cn23)CC1 [Compound I-81] | 0.01 to 100 | 100 to 1000 | 10 to 30 | 10 to 30 | 0.1 to 10
7 | CN1CCN(c2cccc3nc([C@H]4CCC[C@@H](c5ncccc5Cl)N4C)cn23)CC1 [Compound I-82] | 0.01 to 100 | 0.01 to 100 | 0.1 to 10 | 10 to 30 | 0.1 to 10
8 | Cc1cccnc1[C@@H]1CCC[C@H](c2nc3ccccn3c2C=C2CCN(C)CC2)N1C [Compound I-83] | 0.01 to 100 | 100 to 1000 | 0.1 to 10 | 10 to 30 | 10 to 30
9 | Cc1cccnc1[C@@H]1CCC[C@H](c2nc3cccc(N4CCN(C)CC4)n3c2COC2CC2)N1C [Compound I-85] | 0.01 to 100 | 0.01 to 100 | 0.1 to 10 | 10 to 30 | 0.1 to 10
10 | Cc1cccnc1[C@@H]1CCC[C@H](c2nc3cccc(N4CCN(C)CC4)n3c2C)N1C [Compound I-86] | 0.01 to 100 | 0.01 to 100 | 0.1 to 10 | 10 to 30 | 10 to 30
11 | Cc1cccnc1[C@@H]1CCC[C@H](c2cn3c(N4CCN(C)CC4)cccc3n2)N1CCO [Compound I-87] | 0.01 to 100 | 0.01 to 100 | 0.1 to 10 | 10 to 30 | 10 to 30
12 | CCN1CCN(c2cccc3nc([C@H]4CCC[C@@H](c5ncccc5C)N4C)c(Cl)n23)CC1 [Compound I-88] | 0.01 to 100 | 0.01 to 100 | 0.1 to 10 | 0.1 to 10 | 0.1 to 10
13 | C#Cc1c([C@H]2CCC[C@@H](c3ncccc3C)N2C)nc2cccc(N3CCN(C)CC3)n12 [Compound I-89] | 0.01 to 100 | 0.01 to 100 | 0.1 to 10 | 0.1 to 10 | 0.1 to 10
14 | CC(C)c1cccnc1[C@@H]1CCC[C@H](c2nc3cccc(N4CCN(C)CC4)n3c2Cl)N1C [Compound I-91] | 100 to 1000 | ≥ 1000 | 0.1 to 10 | 0.1 to 10 | 0.1 to 10
15 | Cc1cccnc1[C@@H]1CCC[C@H](c2nc3cccc(N4CCN(C(C)C)CC4)n3c2Cl)N1C [Compound I-92] | 0.01 to 100 | 0.01 to 100 | 0.1 to 10 | 0.1 to 10 | 0.1 to 10
16 | Cc1cccnc1[C@@H]1CCC[C@H](c2nc3cccc(N4CCN(C5CC5)CC4)n3c2Cl)N1C [Compound I-93] | 0.01 to 100 | 100 to 1000 | 10 to 30 | 0.1 to 10 | 0.1 to 10
17 | CO[C@H](c1c([C@H]2CCC[C@@H](c3ncccc3C)N2C)nc2ccccn12)C1CCN(C)CC1 [Compound I-104] | 0.01 to 100 | 100 to 1000 | 0.1 to 10 | 10 to 30 | > 30
18 | CO[C@@H](c1c([C@H]2CCC[C@@H](c3ncccc3C)N2C)nc2ccccn12)C1CCN(C)CC1 [Compound I-105] | 100 to 1000 | ≥ 1000 | 0.1 to 10 | 10 to 30 | > 30
19 | Cc1cccnc1[C@@H]1CCC[C@H](c2cn3c(N4CCN(C)CC4)c(F)ccc3n2)N1C [Compound I-106] | 0.01 to 100 | 0.01 to 100 | 0.1 to 10 | 10 to 30 | 0.1 to 10
20 | Cc1cccnc1[C@@H]1CCC[C@H](c2cn3c(N4CC5CCC(C4)N5)cccc3n2)N1C [Compound I-109] | 0.01 to 100 | 100 to 1000 | 0.1 to 10 | 10 to 30 | > 30
21 | Cc1cccnc1[C@@H]1CCC[C@H](c2cn3c(N4C5CCC4CNC5)cccc3n2)N1C [Compound I-110] | 0.01 to 100 | 0.01 to 100 | 0.1 to 10 | 10 to 30 | > 30
22 | CCN1CCN(c2cccc3nc([C@H]4CCC[C@@H](c5ncccc5C(C)C)N4C)cn23)CC1 [Compound I-111] | 100 to 1000 | ≥ 1000 | 0.1 to 10 | 0.1 to 10 | 0.1 to 10
23 | Cc1cccnc1[C@@H]1CCC[C@H](c2nc3cccc(N4CCN(C5CC5)CC4)n3c2CO)N1C [Compound I-112] | 0.01 to 100 | 100 to 1000 | 10 to 30 | 10 to 30 | 0.1 to 10
24 | Cc1cccnc1[C@@H]1CCC[C@H](c2nc3cccc(N4CCN5CCCC5C4)n3c2Cl)N1C (stereo partly drawn) [Compound I-113] | 0.01 to 100 | 0.01 to 100 | 0.1 to 10 | 0.1 to 10 | 0.1 to 10
25 | CN1CCN(c2cccc3nc([C@H]4CCC[C@@H](c5ncccc5Cl)N4C)c(CO)n23)CC1 [Compound I-116] | 0.01 to 100 | 0.01 to 100 | 0.1 to 10 | 10 to 30 | 0.1 to 10
26 | CC(C)N1CCN(c2cccc3nc([C@H]4CCC[C@@H](c5ncccc5Cl)N4C)c(Cl)n23)CC1 [Compound I-123] | 0.01 to 100 | ≥ 1000 | 0.1 to 10 | 0.1 to 10 | 0.1 to 10
27 | CCN1CCN(c2cccc3nc([C@H]4CCC[C@@H](c5ncccc5Cl)N4C)c(Cl)n23)CC1 [Compound I-125] | 0.01 to 100 | 100 to 1000 | 0.1 to 10 | 0.1 to 10 | 0.1 to 10
